Measured values reported in patent US9096532B2, “Pyrazole inhibitors of COX-2 and sEH” (The Regents of the University of California, priority 2010, dated 2015).

Columns and labels:
human sEH = molecular target: T1, human sEH (Homo sapiens, UniProt P34913); experiment: sEH IC50 assay, fluorescent-based with CMNPC substrate; format: biochemical; conditions: for IC50: kinetic fluorescent assay, means ± SD of three separate experiments
T1 sequence (P34913 1-555): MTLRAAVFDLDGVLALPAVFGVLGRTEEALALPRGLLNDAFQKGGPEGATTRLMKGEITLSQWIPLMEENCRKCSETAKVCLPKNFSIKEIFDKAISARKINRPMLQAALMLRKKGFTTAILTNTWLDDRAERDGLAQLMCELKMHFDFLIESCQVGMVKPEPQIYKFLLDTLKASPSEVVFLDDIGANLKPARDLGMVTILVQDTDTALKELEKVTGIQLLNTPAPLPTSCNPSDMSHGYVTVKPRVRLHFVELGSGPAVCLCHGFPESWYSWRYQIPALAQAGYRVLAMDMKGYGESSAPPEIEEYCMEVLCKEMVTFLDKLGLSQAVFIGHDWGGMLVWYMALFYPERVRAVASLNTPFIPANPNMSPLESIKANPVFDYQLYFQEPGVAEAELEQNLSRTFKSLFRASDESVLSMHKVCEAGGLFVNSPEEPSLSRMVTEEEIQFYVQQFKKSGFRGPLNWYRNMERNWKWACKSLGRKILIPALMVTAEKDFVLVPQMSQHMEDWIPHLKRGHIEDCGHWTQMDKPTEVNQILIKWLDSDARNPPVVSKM
Procedure: sEH inhibition IC50 values for the compounds presented herein can be assayed by a recombinant affinity assay using purified sEHs, from human, mouse or rat, in a fluorescent-based assay.
For the recombinant affinity assay, purified sEHs (human, mouse and rat) were used in a fluorescent-based assay to determine IC50 values. […] These IC50 values were calculated from at least three separate runs, each in triplicate, to obtain the statistics herein, e.g., standard deviation.

ovine COX-1 = molecular target: T2, ovine COX-1 (Ovis aries, UniProt P05979); experiment: Cyclooxygenase inhibition assay (COX Fluorescent Inhibitor Screening Assay Kit), COX-1; format: biochemical; conditions: read-out: COX-1 (% inhibition)
T2 construct: purchased Cayman Chemical 700100
T2 sequence (P05979 25-600): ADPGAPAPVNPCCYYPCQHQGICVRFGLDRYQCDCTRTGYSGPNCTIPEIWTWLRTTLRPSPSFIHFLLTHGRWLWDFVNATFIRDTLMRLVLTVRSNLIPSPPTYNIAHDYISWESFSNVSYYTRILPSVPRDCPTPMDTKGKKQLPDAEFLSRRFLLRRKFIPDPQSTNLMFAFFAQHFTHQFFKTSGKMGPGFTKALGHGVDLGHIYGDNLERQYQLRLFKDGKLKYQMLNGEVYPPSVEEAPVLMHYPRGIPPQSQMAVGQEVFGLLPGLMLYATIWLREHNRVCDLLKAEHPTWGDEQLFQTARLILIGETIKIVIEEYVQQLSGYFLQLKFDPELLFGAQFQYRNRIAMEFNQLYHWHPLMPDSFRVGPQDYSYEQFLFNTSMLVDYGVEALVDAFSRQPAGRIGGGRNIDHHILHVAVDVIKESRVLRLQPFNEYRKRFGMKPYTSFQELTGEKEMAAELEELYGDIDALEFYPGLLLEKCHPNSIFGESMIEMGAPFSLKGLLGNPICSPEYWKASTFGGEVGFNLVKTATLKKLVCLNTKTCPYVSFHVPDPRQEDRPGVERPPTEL
Procedure: (§1) Stock solutions of test compounds are dissolved in a minimum volume of DMSO. 10 μl of various concentrations of the test compound solutions, e.g., [I]final between 0.01 and 100 μM, are added to a series of supplied reaction buffer solutions (150 μl, 100 mM Tris-HCl, pH 8.0) with either COX-1 or COX-2 (10 μl) enzyme in the presence of Heme (10 μl) and a fluorometric substrate (10 μl). The reactions are initiated by quickly adding 10 μl of arachidonic acid solution and then incubating the system for two minutes at room temperature. […] The intensity of this fluorescence is proportional to the amount of resorufin, which is proportional to the amount of PGG2 present in the well during the incubation. Percent inhibition is calculated by comparison from the 100% initial activity sample value (no inhibitor).
as §1, with “compounds were” for “compounds are”, “μM, were” for “μM, are”, “reactions were” for “reactions are”, “then incubated” for “then incubating the system”, “inhibition was” for “inhibition is”

[1] = Pharmacokinetics in mice by oral cassette dosing; format: in vivo; conditions: oral cassette dosing at 5 mg/kg, blood
Procedure: All the animal experiments were performed according to protocols approved by the Animal Use and Care Committee of University of California, Davis. […] Each cassette was orally administered to 4 mice at a dose of 5 mg/kg in 120-150 μl of vehicle depending on animal weight. […] The instrument was equipped with a linear ion trap and a Turbo V ion source and was operated in negative ion MRM mode. […] This was maintained for 3 min, then the gradient was returned to 30% solvent B in 2 min. The flow rate was 0.4 mL/min. The injection volume was 10 μL and the samples were kept at 4° C. in the auto sampler.

human recombinant COX-2 = molecular target: T3, human recombinant COX-2 (Homo sapiens, UniProt P35354); experiment: Cyclooxygenase inhibition assay (COX Fluorescent Inhibitor Screening Assay Kit), COX-2; format: biochemical; conditions: compared to compound 21b
T3 construct: purchased Cayman Chemical 700100
T3 sequence (P35354 18-604): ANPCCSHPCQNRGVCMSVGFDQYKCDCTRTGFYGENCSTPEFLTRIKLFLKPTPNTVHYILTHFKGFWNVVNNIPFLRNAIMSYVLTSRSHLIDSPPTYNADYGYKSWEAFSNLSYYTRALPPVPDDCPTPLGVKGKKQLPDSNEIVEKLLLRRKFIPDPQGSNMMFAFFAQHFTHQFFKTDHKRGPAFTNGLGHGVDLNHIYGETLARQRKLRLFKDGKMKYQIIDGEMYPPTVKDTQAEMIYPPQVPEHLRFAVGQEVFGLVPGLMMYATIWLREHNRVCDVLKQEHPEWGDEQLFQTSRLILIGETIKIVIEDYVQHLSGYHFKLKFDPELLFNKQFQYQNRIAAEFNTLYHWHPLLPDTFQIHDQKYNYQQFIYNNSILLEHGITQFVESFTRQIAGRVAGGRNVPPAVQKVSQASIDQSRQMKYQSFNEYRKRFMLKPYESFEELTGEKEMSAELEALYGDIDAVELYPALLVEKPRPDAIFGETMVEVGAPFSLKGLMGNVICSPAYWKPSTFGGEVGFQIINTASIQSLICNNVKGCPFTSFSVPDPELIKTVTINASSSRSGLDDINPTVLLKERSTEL
Procedure: as §1
as §1, with “compounds were” for “compounds are”, “μM, were” for “μM, are”, “reactions were” for “reactions are”, “then incubated” for “then incubating the system”, “inhibition was” for “inhibition is”

For `COc1ccc2c(c1)c(CC(=O)O)c(C)n2C(=O)c1ccc(Cl)cc1` [Indomethacin, reference compound], the IC50 (human sEH) was greater than 10 µM.

`NS(=O)(=O)c1ccc(-n2nc(CCCNC(=O)NC34CC5CC(CC(C5)C3)C4)cc2-c2ccccc2)cc1` [Compound 21f, 4-{3-[3-(3-Adamantan-1-yl-ureido)-propyl]-5-phenyl-pyrazol-1-yl}-benzenesulfonamide] gave an inhibition at 100 µM (ovine COX-1) of 6.7%, an AUC [1] of 0.022 µM·h and a Cmax [1] of 20 nM. It also gave a Tmax [1] of 0.5 h and a t1/2 [1] of 1.7 h.

Work on `NS(=O)(=O)c1ccc(-n2nc(NC(=O)Nc3cccc(C(F)(F)F)c3)cc2-c2ccccc2)cc1` [Compound 7, 4-{5-Phenyl-3-[3-(3-trifluoromethyl-phenyl)-ureido]-pyrazol-1-yl}-benzenesulfonamide] yielded an inhibition at 100 µM (ovine COX-1) of 33.9%.

For `CC(C)(C)c1cc(CNC(=O)Nc2cccc(C(F)(F)F)c2)nn1-c1ccc(S(C)(=O)=O)cc1` [Compound 11h, 1-[5-tert-Butyl-1-(4-methanesulfonyl-phenyl)-1H-pyrazol-3-ylmethyl]-3-(3-trifluoromethyl-phenyl)-urea], the inhibition at 100 µM (ovine COX-1) was 2.4%.

In the case of `CS(=O)(=O)c1ccc(C2=C(c3ccccc3)C(=O)OC2)cc1` [Rofecoxib, rofecoxib, reference compound], the IC50 (human sEH) is reported as greater than 10 µM and the inhibition at 100 µM (ovine COX-1) is reported as 16.5%.

`CS(=O)(=O)c1ccc(-n2nc(CNC(=O)NC34CC5CC(CC(C5)C3)C4)cc2-c2ccccc2)cc1` [Compound 11a, 1-Adamantan-1-yl-3-[1-(4-methanesulfonyl-phenyl)-5-phenyl-1H-pyrazol-3-ylmethyl]-urea] showed an inhibition at 100 µM (ovine COX-1) of 12.7%.

Work on `NS(=O)(=O)c1ccc(-n2nc(CNC(=O)Nc3cccc(C(F)(F)F)c3)cc2-c2ccccc2)cc1` [Compound 11g, 4-{5-Phenyl-3-[3-(3-trifluoromethyl-phenyl)-ureidomethyl]-pyrazol-1-yl}-benzenesulfonamide] yielded an inhibition at 100 µM (ovine COX-1) of 16.9%.

In the case of `Cc1ccc(-c2cc(CCCNC(=O)Nc3cccc(C(F)(F)F)c3)nn2-c2ccc(S(N)(=O)=O)cc2)cc1` [Compound 21c, 4-(5-p-Tolyl-3-{3-[3-(3-trifluoromethyl-phenyl)-ureido]-propyl}-pyrazol-1-yl)-benzenesulfonamide], the “Diminished sEH inhibition” value (human sEH; compared to compound 21b) is reported as 3 fold, the “Diminished COX-2 inhibition” value (human recombinant COX-2) is reported as 3 fold and the inhibition at 100 µM (ovine COX-1) is reported as 12.1%.

Work on `CS(=O)(=O)c1ccc(-n2nc(CNC(=O)Nc3ccc(OC(F)(F)F)cc3)cc2-c2ccccc2)cc1` [Compound 11d, 1-[1-(4-Methanesulfonyl-phenyl)-5-phenyl-1H-pyrazol-3-ylmethyl]-3-(4-trifluoromethoxy-phenyl)-urea] yielded an inhibition at 100 µM (ovine COX-1) of 10.4%.

In the case of `CS(=O)(=O)c1ccc(-n2nc(CNC(=O)NC3CCCCCC3)cc2-c2ccccc2)cc1` [Compound 11b, 1-Cycloheptyl-3-[1-(4-methanesulfonyl-phenyl)-5-phenyl-1H-pyrazol-3-ylmethyl]-urea], the “Improvement of sEH inhibition” value (human sEH; compared to compound 11a) is reported as 10 fold and the inhibition at 100 µM (ovine COX-1) is reported as 3.4%.

Work on `CS(=O)(=O)c1ccc(-n2nc(CNC(=O)Nc3cccc(C(F)(F)F)c3)cc2-c2ccccc2)cc1` [Compound 11f, 1-[1-(4-Methanesulfonyl-phenyl)-5-phenyl-1H-pyrazol-3-ylmethyl]-3-(3-trifluoromethyl-phenyl)-urea] yielded an inhibition at 100 µM (ovine COX-1) of 7.8%.

`NS(=O)(=O)c1ccc(-n2nc(CCCNC(=O)Nc3ccc(Cl)cc3)cc2-c2ccccc2)cc1` [Compound 21h, 4-(3-{3-[3-(4-Chloro-phenyl)-ureido]-propyl}-5-phenyl-pyrazol-1-yl)-benzenesulfonamide] gave an inhibition at 100 µM (ovine COX-1) of 15.2%, an AUC [1] of 0.375 µM·h and a Cmax [1] of 190 nM. The Tmax [1] was 0.8 h and the t1/2 [1] was 2.4 h.

With `NS(=O)(=O)c1ccc(-n2nc(CCNC(=O)Nc3cccc(C(F)(F)F)c3)cc2-c2ccccc2)cc1` [Compound 15, 4-(5-Phenyl-3-{2-[3-(3-trifluoromethyl-phenyl)-ureido]-ethyl}-pyrazol-1-yl)-benzenesulfonamide] the “Improvement of sEH inhibition” value (human sEH; compared to compound 11g) was 3 fold and the inhibition at 100 µM (ovine COX-1) was 22%.

Molecule `CS(=O)(=O)c1ccc(-n2nc(CNC(=O)Nc3ccc(C(F)(F)F)cc3)cc2-c2ccccc2)cc1` [Compound 11e, 1-[1-(4-Methanesulfonyl-phenyl)-5-phenyl-1H-pyrazol-3-ylmethyl]-3-(4-trifluoromethyl-phenyl)-urea] has an inhibition at 100 µM (ovine COX-1) of 10.7%.

`Cc1cccc(C)c1NC(=O)NCCCc1cc(-c2ccccc2)n(-c2ccc(S(N)(=O)=O)cc2)n1` [Compound 21d, 4-(3-{3-[3-(2,6-Dimethyl-phenyl)-ureido]-propyl}-5-phenyl-pyrazol-1-yl)-benzenesulfonamide] gave an IC50 (human sEH) of 1.55 ± 0.07 µM and an inhibition at 100 µM (ovine COX-1) of 6.2%.

In the case of `NS(=O)(=O)c1ccc(-n2nc(CCCNC(=O)NC3CCCCCC3)cc2-c2ccccc2)cc1` [Compound 21g, 4-{3-[3-(3-Cycloheptyl-ureido)-propyl]-5-phenyl-pyrazol-1-yl}-benzenesulfonamide], the inhibition at 100 µM (ovine COX-1) is reported as 10.2%, the AUC [1] is reported as 0.1 µM·h and the Cmax [1] is reported as 42 nM. The Tmax [1] was 0.5 h and the t1/2 [1] was 3.5 h.

`CS(=O)(=O)c1ccc(-n2nc(CCCNC(=O)Nc3cccc(C(F)(F)F)c3)cc2-c2ccccc2)cc1` [Compound 21a, 1-{3-[1-(4-Methanesulfonyl-phenyl)-5-phenyl-1H-pyrazol-3-yl]-propyl}-3-(3-trifluoromethyl-phenyl)-urea] gave an inhibition at 100 µM (ovine COX-1) of 6.4%.

Work on `NS(=O)(=O)c1ccc(-n2nc(CCCNC(=O)Nc3ccccc3)cc2-c2ccccc2)cc1` [Compound 21e, 4-{5-Phenyl-3-[3-(3-phenyl-ureido)-propyl]-pyrazol-1-yl}-benzenesulfonamide] yielded an inhibition at 100 µM (ovine COX-1) of 15.8%, an AUC [1] of 0.125 µM·h and a Cmax [1] of 100 nM. The Tmax [1] was 0.5 h and the t1/2 [1] was 3.1 h.
